{
  "source": "patent US20240252506A1",
  "about": "(Hoffmann-La Roche Inc., priority 2021, published 2024)",
  "tested_on": "Escherichia coli ATCC 25922",
  "experiment": "Minimal Inhibitory Concentration (MIC) determination, broth microdilution (CLSI M07-A10)",
  "format": "cell-based",
  "conditions": "for MIC: Escherichia coli; for Escherichia coli growth inhibition MIC: strain Escherichia coli ATCC 25922, 18-24 hours at 35±2° C.",
  "method": "Minimal Inhibitory Concentration (MIC) Determination:\nThe MIC of antibacterial compounds against multiple species and strains was determined using the broth microdilution method according to M07-A10 Clinical and Laboratory Standards Institute (CLSI) guidelines, using the appropriate broth medium. In short, the compound plates were prepared by dispensing 100 μL of each stock solution in the first well of a 96 well microtiter plate (MTP) at a concentration 100-fold higher than the final concentration desired in broth. Eleven serial 2-fold dilutions of the highest concentration were made in DMSO for new compounds and in water (or appropriate solution) for reference compounds [2]. 1 μL of each well was transferred in a new MTP, which served as the test plate by subsequent inoculation. This bacterial suspension was prepared from strains that were first sub-cultured on agar plates and incubated for 18-24 hours as appropriate. Following incubation, the inoculum was prepared from isolated colonies and adjusted to 0.5 McFarland turbidity standard (1 to 2×10^8 Colony Forming Units (CFU)/mL) in 0.9% saline. The bacterial suspension was then diluted 1:200 in appropriate sterile medium and within 15 minutes 100 μL/well were dispensed. Negative controls (lack of bacterial cells) and growth control wells (lack of compound) were included in all plates. MTPs were incubated for 18-24 hours at 35±2° C. in ambient air. The MIC value of each compound, expressed as μg/mL, was determined as the lowest concentration required for complete growth inhibition (no visible growth). • [1] CLSI (2015) Methods for dilution antimicrobial susceptibility tests for bacteria that grow aerobically; Approved Standard, Tenth Edition. CLSI Document M7-A10 (ISBN 1-56238-987-4). Wayne, PA: Clinical and Laboratory Standards Institute, 19087, USA. • [2] CLSI (2017) Performance Standards for Antimicrobial Susceptibility Testing; Twenty-Fifth Informational Supplement. CLSI Document M100-S27, CLSI, Wayne, Pennsylvania 19087, USA.\nTable 1 provides the Minimal Inhibitory Concentrations (MIC) in micrograms per millilitre of the compounds of present invention obtained against the strain Escherichia coli ATCC 25922.",
  "key": {"[1]": {"conditions": "ATCC25922, strain Escherichia coli ATCC 25922, 18-24 hours at 35±2° C., lowest concentration for complete growth inhibition (no visible growth), read-out: Escherichia coli growth inhibition MIC"}, "[2]": {"conditions": "lowest concentration for complete growth inhibition (no visible growth)"}, "[3]": {"conditions": "lowest concentration for complete growth inhibition (no visible growth), formic acid"}},
  "note": "Counter-ions that a name gives are not always drawn. Like-named read-outs stand apart in the source and are kept apart here.",
  "data": [
    {"smiles": "O=C1COc2ncc(N3CC4(CCN(CC5Cc6cc7nc([C@H]8CCN8)oc7c(F)c6C5)CC4)OC3=O)nc2N1", "note": "(single isomer, unassigned) [Example 108]", "values": [
      {"measurement": "MIC", "setting": "[1]", "result": 0.25, "unit": "µg/mL"}
    ]},
    {"smiles": "O=C1COc2ncc(N3CC4(CCN(CC5Cc6cc7nn(C8CNC8)nc7c(F)c6C5)CC4)OC3=O)nc2N1", "note": "(single isomer, unassigned) [Example 109, 6-[2-oxo-8-[[2-(azetidin-3-yl)-8-fluoro-6,7-dihydro-5H-cyclopenta[f]benzotriazol-6-yl]methyl]-1-oxa-3,8-diazaspiro[4.5]decan-3-yl]-4H-pyrazino[2,3-b][1,4]oxazin-3-one]", "values": [
      {"measurement": "MIC", "setting": "[1]", "result": 0.5, "unit": "µg/mL"}
    ]},
    {"smiles": "O=C1COc2ncc(N3CC4(CCN(CC5Cc6cc7nn(C8CNC8)nc7c(F)c6C5)CC4)OC3=O)nc2N1", "note": "(single isomer, unassigned) [Example 110, 6-[2-oxo-8-[[2-(azetidin-3-yl)-8-fluoro-6,7-dihydro-5H-cyclopenta[f]benzotriazol-6-yl]methyl]-1-oxa-3,8-diazaspiro[4.5]decan-3-yl]-4H-pyrazino[2,3-b][1,4]oxazin-3-one]", "values": [
      {"measurement": "Escherichia coli growth inhibition MIC", "setting": "[2]", "result": 1, "unit": "µg/mL"}
    ]},
    {"smiles": "O=C1COc2ccc(N3CC4(CCN(CC5Cc6cc7nc(C8CNC8)oc7c(F)c6C5)CC4)OC3=O)nc2N1", "note": "(single isomer, unassigned) [Example 111, 6-[8-[[2-(azetidin-3-yl)-8-fluoro-6,7-dihydro-5H-cyclopenta[f][1,3]benzoxazol-6-yl]methyl]-2-oxo-1-oxa-3,8-diazaspiro[4.5]decan-3-yl]-4H-pyrido[3,2-b][1,4]oxazin-3-one]", "values": [
      {"measurement": "MIC", "setting": "[1]", "result": 0.5, "unit": "µg/mL"}
    ]},
    {"smiles": "O=C1COc2ccc(N3CC4(CCN(CC5Cc6cc7nc(C8CNC8)oc7c(F)c6C5)CC4)OC3=O)nc2N1", "note": "(single isomer, unassigned) [Example 112, 6-[8-[[2-(azetidin-3-yl)-8-fluoro-6,7-dihydro-5H-cyclopenta[f][1,3]benzoxazol-6-yl]methyl]-2-oxo-1-oxa-3,8-diazaspiro[4.5]decan-3-yl]-4H-pyrido[3,2-b][1,4]oxazin-3-one]", "values": [
      {"measurement": "Escherichia coli growth inhibition MIC", "setting": "[2]", "result": 0.5, "unit": "µg/mL"}
    ]},
    {"smiles": "O=C1COc2ncc(N3CC4(CCN(CC5Cc6cc7nnn(C8CNC8)c7c(F)c6C5)CC4)OC3=O)nc2N1", "note": "(single isomer, unassigned) [Example 113, formic acid]", "values": [
      {"measurement": "MIC", "setting": "ATCC25922, read-out: Escherichia coli growth inhibition MIC, strain Escherichia coli ATCC 25922, 18-24 hours at 35±2° C., lowest concentration for complete growth inhibition (no visible growth)", "result": 0.125, "unit": "µg/mL"}
    ]},
    {"smiles": "O=C1COc2ncc(N3CC4(CCN(CC5Cc6cc7nnn(C8CNC8)c7c(F)c6C5)CC4)OC3=O)nc2N1.O=CO", "note": "(single isomer, unassigned) [Example 114]", "values": [
      {"measurement": "MIC", "setting": "[1]", "result": 0.25, "unit": "µg/mL"}
    ]},
    {"smiles": "O=C1COc2ncc(N3CC4(CCN(CC5Cc6cc7c(nnn7C7CNC7)c(F)c6C5)CC4)OC3=O)nc2N1.O=CO", "note": "(single isomer, unassigned) [Example 115, 6-[2-oxo-8-[[3-(azetidin-3-yl)-8-fluoro-6,7-dihydro-5H-cyclopenta[f]benzotriazol-6-yl]methyl]-1-oxa-3,8-diazaspiro[4.5]decan-3-yl]-4H-pyrazino[2,3-b][1,4]oxazin-3-one; formic acid]", "values": [
      {"measurement": "MIC", "setting": "[1]", "result": 0.5, "unit": "µg/mL"}
    ]},
    {"smiles": "O=C1COc2ncc(N3CC4(CCN(CC5Cc6cc7c(nnn7C7CNC7)c(F)c6C5)CC4)OC3=O)nc2N1.O=CO", "note": "(single isomer, unassigned) [Example 116, 6-[2-oxo-8-[[3-(azetidin-3-yl)-8-fluoro-6,7-dihydro-5H-cyclopenta[f]benzotriazol-6-yl]methyl]-1-oxa-3,8-diazaspiro[4.5]decan-3-yl]-4H-pyrazino[2,3-b][1,4]oxazin-3-one; formic acid]", "values": [
      {"measurement": "Escherichia coli growth inhibition MIC", "setting": "[3]", "result": 0.25, "unit": "µg/mL"}
    ]},
    {"smiles": "CNCCn1nnc2c(F)c3c(c(F)c21)CC(CN1CCC2(CC1)CN(c1cnc4c(n1)NC(=O)CO4)C(=O)O2)C3", "note": "(single isomer, unassigned) [Example 118, 6-[2-oxo-8-[[4,8-difluoro-1-[2-(methylamino)ethyl]-6,7-dihydro-5H-cyclopenta[f]benzotriazol-6-yl]methyl]-1-oxa-3,8-diazaspiro[4.5]decan-3-yl]-4H-pyrazino[2,3-b][1,4]oxazin-3-one]", "values": [
      {"measurement": "MIC", "setting": "[1]", "result": 0.125, "unit": "µg/mL"}
    ]},
    {"smiles": "CNCCn1nnc2c(F)c3c(c(F)c21)CC(CN1CCC2(CC1)CN(c1cnc4c(n1)NC(=O)CO4)C(=O)O2)C3", "note": "(single isomer, unassigned) [Example 119, 6-[2-oxo-8-[[4,8-difluoro-1-[2-(methylamino)ethyl]-6,7-dihydro-5H-cyclopenta[f]benzotriazol-6-yl]methyl]-1-oxa-3,8-diazaspiro[4.5]decan-3-yl]-4H-pyrazino[2,3-b][1,4]oxazin-3-one]", "values": [
      {"measurement": "Escherichia coli growth inhibition MIC", "setting": "[2]", "result": 0.125, "unit": "µg/mL"}
    ]},
    {"smiles": "O=C1COc2ncc(N3CC4(CCN(CC5Cc6c(c(F)c7c(nnn7C7CNC7)c6F)C5)CC4)OC3=O)nc2N1.O=CO", "note": "(single isomer, unassigned) [Example 120, 6-[8-[[1-(azetidin-3-yl)-4,8-difluoro-6,7-dihydro-5H-cyclopenta[f]benzotriazol-6-yl]methyl]-2-oxo-1-oxa-3,8-diazaspiro[4.5]decan-3-yl]-4H-pyrazino[2,3-b][1,4]oxazin-3-one; formic acid]", "values": [
      {"measurement": "MIC", "setting": "[1]", "result": 0.25, "unit": "µg/mL"}
    ]},
    {"smiles": "O=C1COc2ncc(N3CC4(CCN(CC5Cc6c(c(F)c7c(nnn7C7CNC7)c6F)C5)CC4)OC3=O)nc2N1.O=CO", "note": "(single isomer, unassigned) [Example 121, 6-[8-[[1-(azetidin-3-yl)-4,8-difluoro-6,7-dihydro-5H-cyclopenta[f]benzotriazol-6-yl]methyl]-2-oxo-1-oxa-3,8-diazaspiro[4.5]decan-3-yl]-4H-pyrazino[2,3-b][1,4]oxazin-3-one; formic acid]", "values": [
      {"measurement": "Escherichia coli growth inhibition MIC", "setting": "[3]", "result": 0.125, "unit": "µg/mL"}
    ]},
    {"smiles": "O=C1COc2ncc(N3CC4(CCN(CC5Cc6c(c(F)c7c(nnn7CCNC7CC7)c6F)C5)CC4)OC3=O)nc2N1.O=CO", "note": "(single isomer, unassigned) [Example 124, 6-[8-[[1-[2-(Cyclopropylamino)ethyl]-4,8-difluoro-6,7-dihydro-5H-cyclopenta[f]benzotriazol-6-yl]methyl]-2-oxo-1-oxa-3,8-diazaspiro[4.5]decan-3-yl]-4H-pyrazino[2,3-b][1,4]oxazin-3-one;formic acid]", "values": [
      {"measurement": "MIC", "setting": "[1]", "result": 0.5, "unit": "µg/mL"}
    ]},
    {"smiles": "O=C1COc2ncc(N3CC4(CCN(CC5Cc6c(c(F)c7c(nnn7CCNC7CC7)c6F)C5)CC4)OC3=O)nc2N1.O=CO", "note": "(single isomer, unassigned) [Example 125, 6-[8-[[1-[2-(Cyclopropylamino)ethyl]-4,8-difluoro-6,7-dihydro-5H-cyclopenta[f]benzotriazol-6-yl]methyl]-2-oxo-1-oxa-3,8-diazaspiro[4.5]decan-3-yl]-4H-pyrazino[2,3-b][1,4]oxazin-3-one;formic acid]", "values": [
      {"measurement": "Escherichia coli growth inhibition MIC", "setting": "[2]", "result": 0.25, "unit": "µg/mL"}
    ]},
    {"smiles": "CNCCn1cnc2c(F)c3c(c(F)c21)CC(CN1CCC2(CC1)CN(c1cnc4c(n1)NC(=O)CO4)C(=O)O2)C3", "note": "(single isomer, unassigned) [Example 126, 6-[2-oxo-8-[[4,8-difluoro-1-[2-(methylamino)ethyl]-6,7-dihydro-5H-cyclopenta[f]benzimidazol-6-yl]methyl]-1-oxa-3,8-diazaspiro[4.5]decan-3-yl]-4H-pyrazino[2,3-b][1,4]oxazin-3-one]", "values": [
      {"measurement": "MIC", "setting": "[1]", "result": 0.25, "unit": "µg/mL"}
    ]},
    {"smiles": "CNCCn1cnc2c(F)c3c(c(F)c21)CC(CN1CCC2(CC1)CN(c1cnc4c(n1)NC(=O)CO4)C(=O)O2)C3", "note": "(single isomer, unassigned) [Example 127]", "values": [
      {"measurement": "Escherichia coli growth inhibition MIC", "setting": "[2]", "result": 0.25, "unit": "µg/mL"}
    ]},
    {"smiles": "C[C@H](N)Cn1nnc2c(F)c3c(c(F)c21)CC(CN1CCC2(CC1)CN(c1cnc4c(n1)NC(=O)CO4)C(=O)O2)C3.Cl", "note": "(single isomer, unassigned) [Example 130]", "values": [
      {"measurement": "MIC", "setting": "[1]", "result": 0.25, "unit": "µg/mL"}
    ]},
    {"smiles": "C[C@H](N)Cn1nnc2c(F)c3c(c(F)c21)CC(CN1CCC2(CC1)CN(c1cnc4c(n1)NC(=O)CO4)C(=O)O2)C3.Cl", "note": "(single isomer, unassigned) [Example 131]", "values": [
      {"measurement": "Escherichia coli growth inhibition MIC", "setting": "lowest concentration for complete growth inhibition (no visible growth), hydrochloride", "result": 0.125, "unit": "µg/mL"}
    ]},
    {"smiles": "NCCn1nc2cc3c(c(F)c2n1)CC(CN1CCC2(CC1)CN(c1ccc4c(n1)NC(=O)CO4)C(=O)O2)C3", "note": "(single isomer, unassigned) [Example 132, 6-[2-oxo-8-[[2-(2-aminoethyl)-8-fluoro-6,7-dihydro-5H-cyclopenta[f]benzotriazol-6-yl]methyl]-1-oxa-3,8-diazaspiro[4.5]decan-3-yl]-4H-pyrido[3,2-b][1,4]oxazin-3-one dihydrochloride]", "values": [
      {"measurement": "Escherichia coli growth inhibition MIC", "setting": "lowest concentration for complete growth inhibition (no visible growth), dihydrochloride", "result": 0.25, "unit": "µg/mL"}
    ]}
  ]
}
